Two molecules from US20250057960A1, “OLIGOSACCHARIDE COMPLEXES AND USES” (BioNTech SE, priority 2021, published 2025) can be followed below.

The subject of one experiment is human PBMCs. Put plainly: Pro-inflammatory cytokine secretion in human PBMCs with alternative TLR inhibitors (Example 14). It is filed as cell-based. The settings on record: in JLF218+Tween40+TL2-C29 (1:0.5:0.5) modRNA formulation, N/P6; 24 hours after transfection. The protocol:
The present example evaluated the impact of different TLR inhibitors. Pro-inflamatory cytokine secretion in human PBMCs was evaluated for two different oligosaccharide formulations (JLF218 and JLF244) in combination with either TAK-242 or TL2-C29. Six formulations were tested, as illustrated in table below: […]
All formulations were complexed with modRNA (coding for firefly luciferase) formulated at N/P6. Formulations were complexed in MBG Buffer (final concentration 5% w/v Glucose, 10 mM MES, pH 6.1), at RNA final concentration of 0.15 mg/mL and the mixing ratio of the RNA containing solution and the oligosccharide+Tween40 (+TAK-242 or TL2-C29 as indicated) containing solution was 9:1 (v:v) for all the cases.
IL-6, TNFα, IL1b, IFNg, MIP1b, IP10 and MCP1 secretion was evaluated 24 hours after transfection of 1e^6 human PMBCs in supernatant using the MSD Kit Standard Protocol. Cell viability was evaluated using a XTT Standard Assay. In the following figures, C29 refers to TL2-C29. FIG. 12A is a plot illustrating IL-6 secretion of human PBMCs (hPMBCs) for different doses of tested formulations. FIG. 12B is a plot illustrating TNFa secretion of hPBMCs for different doses of tested formulations. FIG. 12C is a plot illustrating IL1b secretion of hPBMCs for different doses of tested formulations. […]

The subject of a further experiment is hPBMCs. Description: Secretion of pro-inflammatory cytokines and chemokines in hPBMCs after transfection with modRNA formulations (Example 10). It is filed as cell-based, human. The note with it: incorporated into cationic oligosaccharide (JLF218)+Tween40 modRNA complex, 1:0.5:0.5 molar ratio, N/P6; 24 hours after transfection; FIGS. 10A to 10D. An excerpt: The present example provides complexes comprising a third component which can inhibit the immune response against the expressed protein from the delivered RNA, avoiding pro-inflammatory signals that can hamper the therapeutic effect of RNA-therapy. In the present experiment, a TLR4 inhibitor molecule, TAK-242, was used alone or together with a wide spectrum immunosuppressor, dexamethasone, in combination with cationic oligosaccharides described herein+Tween40 to formulate modRNA encoding for luciferase.
In the first part of the experiment, secretion of pro-inflammatory cytokines in hPBMCs was evaluated for two different cationic oligosaccharides: JLF218 and PRX093, whereas different combinations including TAK-242 and/or Dexamethasone are tested. […] IL-6, TNF-α, IL-1β, IFN-γ, MIP-1β, IP-10 and MCP-1 secretion after 24 hours of transfection of 5×105 hPMBCs was evaluated in the supernatants using MSD Kit Standard Protocol. Primary human hepatocytes were transfected with a dose variation between 0.01-1 μg of modRNA and luciferase expression is evaluated over the course of 6 days.
FIG. 10A is a scatter plot illustrating quantified IL-6 secretion in hPBMCs upon exposure to different doses of tested formulations. FIG. 10B is a scatter plot illustrating quantified TNF-α secretion in hPBMCs upon exposure to different doses of tested formulations. […]

With `COc1cccc(/C=N/c2cccc(C(=O)O)c2C)c1O` [TL2-C29], in the experiment with human PBMCs, the “secretion of pro-inflammatory cytokines” value is “able to inhibit”.

As to `CCOC(=O)C1=CCCC[C@H]1S(=O)(=O)Nc1ccc(F)cc1Cl` [TAK-242], the “secretion of pro-inflammatory cytokines (IL-6, TNF-α, IL-1β, IFN-γ)” value with hPBMCs is given as “reduction of pro-inflammatory cytokines”.
